Counter-ions that a name gives are not always drawn.
What follows are compounds tested against T1, human chemokine receptor 2 isoform B (Homo sapiens, UniProt P41597) (assay: Calcium mobilization assay (FLIPR, CHOK1-CCR2B-A5 cells, 20 nM MCP-1)). Settings: Ca mobilisation assay, CCR2, antagonist activity vs 20 nM MCP-1.
T1 construct: host or cells: CHOK1-CCR2B-A5 (CHO-K1)
T1 sequence (P41597 1-360 isoform P41597-2): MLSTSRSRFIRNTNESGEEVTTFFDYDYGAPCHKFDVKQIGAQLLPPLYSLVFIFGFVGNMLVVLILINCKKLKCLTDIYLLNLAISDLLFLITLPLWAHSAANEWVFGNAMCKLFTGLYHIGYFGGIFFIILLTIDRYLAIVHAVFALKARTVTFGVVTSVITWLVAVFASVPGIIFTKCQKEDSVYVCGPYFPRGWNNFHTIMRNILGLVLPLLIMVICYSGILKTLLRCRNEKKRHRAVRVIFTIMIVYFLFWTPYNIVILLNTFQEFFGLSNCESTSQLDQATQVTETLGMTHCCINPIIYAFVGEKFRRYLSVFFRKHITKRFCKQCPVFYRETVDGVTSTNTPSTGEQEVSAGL
Type: cell-based
Method: CHOK1-CCR2B-A5 cells (from Euroscreen) stably overexpressing the human chemokine receptor 2 isoform B were cultured in Nutrient Hams F12 medium supplemented with 5% FBS, 100 U/ml penicillin, 100 μg/ml streptomycin, 400 μg/ml G418 and 5 μg/ml puromycin.
For the assay cells were grown overnight in 384-well black clear flat bottom polystyrene plates (Costar) at 37° C. at 5% CO2. After washing with DMEM, 20 mM Hepes, 2.5 mM probenecid, 0.1% BSA (DMEM assay buffer) cells were loaded with 4 μM Fluo-4 in the same DMEM assay buffer for 2 hours at 30° C. Excess dye was removed and cells were washed with DMEM assay buffer. 384-well compound plates were prepared with DMEM assay buffer/0.5% DMSO with or without various concentrations of test compounds. Usually compounds were tested for agonist and antagonist activity.
Test compounds were added to the assay plate and agonist activity was monitored as fluorescence for 80 seconds with a FLIPR (488 nm excitation; 510-570 nm emission; Molecular Devices). After 20-30 min. of incubation at 30° C., 20 nM MCP-1 (R&D; Roche) was added and fluorescence was monitored again for 80 seconds. Increases in intracellular calcium are reported as maximum fluorescence after agonist exposure minus basal fluorescence before exposure. Antagonist activity is indicated as inhibitor concentration required for 50% inhibition of specific calcium increases.

Compound	IC50 [nM]
CC(C)N1CCN(CC(O)CN2CCN(C(=O)/C=C/c3ccc(Cl)c(Cl)c3)CCC2=O)CC1C (racemic) [Example 301]	977
O=C(/C=C/c1ccc(F)c(Cl)c1)N1CCC(=O)N(CCCCN2CCCCC2CO)CC1 (racemic) [Example 387]	584
O=C(/C=C/c1ccc(Cl)c(Cl)c1)N1CCC(=O)N(CCCN2CCC[C@H]2CO)CC1 [Example 47, (S)-1-[(E)-3-(3,4-Dichloro-phenyl)-acryloyl]-4-[3-(2-hydroxymethyl-pyrrolidin-1-yl)-propyl]-[1,4]diazepan-5-one]	193
C[C@@H]1CN(CC(O)CN2CCN(C(=O)/C=C/c3ccc(Cl)c(Cl)c3)CCC2=O)CC[C@H]1O (mixture of isomers) [Example 316, (rac)-1-[(E)-3-(3,4-Dichloro-phenyl)-acryloyl]-4-[2-hydroxy-3-(trans-4-hydroxy-3-methyl-piperidin-1-yl)-propyl]-[1,4]diazepan-5-one]	755
CC1(C)CCN(C[C@H](O)CCN2CCN(C(=O)/C=C/c3ccc(Cl)c(Cl)c3)CCC2=O)CC1O (stereo partly shown) [Example 501]	155
CC1CCC(N(C)CCN2CCN(C(=O)/C=C/c3ccc(Cl)c(Cl)c3)CCC2=O)CC1 (mixture of isomers) [Example 124, cis/trans-1-[(E)-3-(3,4-Dichloro-phenyl)-acryloyl]-4-{3-[methyl-(4-methyl-cyclohexyl)-amino]-ethyl}-[1,4]diazepan-5-one]	667
O=C(/C=C/c1ccc(Cl)c(Cl)c1)N1CCC(=O)N(CCCN2CC[C@@H](O)[C@@H](F)C2)CC1 (racemic) [Example 233, (rac, cis)-1-[(E)-3-(3,4-Dichloro-phenyl)-acryloyl]-4-[3-(3-fluoro-4-hydroxy-piperidin-1-yl)-propyl]-[1,4]diazepan-5-one]	359
CC1CCN(CCCN2CCN(C(=O)/C=C/c3ccc(F)c(Cl)c3)CCC2=O)CC1O (single isomer, unassigned) [Example 191, 1-[(E)-3-(3-Chloro-4-fluoro-phenyl)-acryloyl]-4-[3-((−, cis)-3-hydroxy-4-methyl-piperidin-1-yl)-propyl]-[1,4]diazepan-5-one]	25
CC1CCN(CCCCN2CCN(C(=O)/C=C/c3ccc(Cl)c(Cl)c3)CCC2=O)CC1O (racemic) [Example 448]	181
O=C(/C=C/c1cccc(Cl)c1)N1CCC(=O)N(CCCN2CCCCC2)CC1 [Example 188, 1-[(E)-3-(3-Chloro-phenyl)-acryloyl]-4-(3-piperidin-1-yl-propyl)-[1,4]diazepan-5-one]	1340
CC1(O)CCCN(CCCCN2CCN(C(=O)/C=C/c3ccc(Cl)c(Cl)c3)CCC2=O)C1 (racemic) [Example 431]	448
COC1CCCN(CCCCN2CCN(C(=O)/C=C/c3ccc(F)c(Cl)c3)CCC2=O)C1 (racemic) [Example 395]	996
O=C(/C=C/c1ccc(F)c(Cl)c1)N1CCC(=O)N(CCCN2CCCCC2)CC1 [Example 11, 1-[(E)-3-(3-Chloro-4-fluoro-phenyl)-acryloyl]-4-(3-piperidin-1-yl-propyl)-[1,4]diazepan-5-one]	363

The remaining compounds from weak to strong by IC50, led by results:

IC50 [nM]	Compound
981	CC1CN(CC(O)CN2CCN(C(=O)/C=C/c3ccc(Cl)c(Cl)c3)CCC2=O)CCC1O (racemic) [Example 300]
806	O=C(C=Cc1ccc(Cl)c(Cl)c1)N1CCC(=O)N(CCNC2CCC(O)(c3ccccn3)CC2)CC1 (stereo not drawn) [Example 105, trans-1-[(E)-3-(3,4-Dichloro-phenyl)-acryloyl]-4-[3-(4-hydroxy-4-pyridin-2-yl-cyclohexylamino)-ethyl]-[1,4]diazepan-5-one]
765	CC1CCCN1CCN1CCN(C(=O)/C=C/c2ccc(Cl)c(Cl)c2)CCC1=O (racemic) [Example 348]
688	CC(C)N1CCC(NCCN2CCN(C(=O)/C=C/c3ccc(Cl)c(Cl)c3)CCC2=O)CC1 [Example 136, 1-[(E)-3-(3,4-Dichloro-phenyl)-acryloyl]-4-[2-(1-isopropyl-piperidin-4-ylamino)-ethyl]-[1,4]diazepan-5-one]
544	O=C(/C=C/c1ccc(Cl)c(Cl)c1)N1CCC(=O)N(CCCCN2CC[C@@H](O)[C@H](O)C2)CC1 (racemic) [Example 164, 1-[(E)-3-(3,4-Dichloro-phenyl)-acryloyl]-4-[4-((3RS,4RS)-3,4-dihydroxy-piperidin-1-yl)-butyl]-[1,4]diazepan-5-one hydrochloride]
356	O=C(/C=C/c1ccc(F)c(Cl)c1)N1CCC(=O)N(CCCN2CC[C@H](CO)[C@H](O)C2)CC1 (racemic) [Example 215]
263	COC1CCCN(CCCN2CCN(C(=O)/C=C/c3ccc(Cl)c(Cl)c3)CCC2=O)C1 (racemic) [Example 80, (+/−)-1-[(E)-3-(3,4-Dichloro-phenyl)-acryloyl]-4-[3-(3-methoxy-piperidin-1-yl)-propyl]-[1,4]diazepan-5-one]
243	CC1C(O)CCCN1CCCN1CCN(C(=O)C=Cc2ccc(Cl)c(Cl)c2)CCC1=O (mixture of isomers) [Example 225, (rac,trans)-1-[(E)-3-(3,4-Dichlorophenyl)-acryloyl]-4-[3-(3-hydroxy-2-methyl-piperidin-1-yl)-propyl]-[1,4]diazepan-5-one]
105	CC(C)N1CCN(CCCN2CCN(C(=O)/C=C/c3ccc(Cl)c(Cl)c3)CCC2=O)CC1 [Example 240]
55	C[C@@]1(CO)CCN(CCCN2CCN(C(=O)/C=C/c3ccc(Cl)c(Cl)c3)CCC2=O)C[C@H]1O (racemic) [Example 271, (rac,trans)-1-[(E)-3-(3,4-Dichloro-phenyl)-acryloyl]-4-[3-(3-hydroxy-4-hydroxymethyl-4-methyl-piperidin-1-yl)-propyl]-[1,4]diazepan-5-one]
32	COCC1CCN(CCCCN2CCN(C(=O)/C=C/c3ccc(Cl)c(Cl)c3)CCC2=O)CC1 [Example 444, 1-[(E)-3-(3,4-Dichloro-phenyl)-acryloyl]-4-[4-(4-methoxymethyl-3-piperidin-1-yl)-butyl]-[1,4]diazepan-5-one]
26	C[C@@H]1C[C@H](O)CN(C[C@H](O)CN2CCN(C(=O)/C=C/c3ccc(F)c(Cl)c3)CCC2=O)C1 (mixture of isomers) [Example 344, 1-[(E)-3-(3-Chloro-4-fluoro-phenyl)-acryloyl]-4-[(S)-2-hydroxy-3-(cis-3-hydroxy-5-methyl-piperidin-1-yl)-propyl]-[1,4]diazepan-5-one]
19	CC1(CO)CCN(CC(O)CN2CCN(C(=O)C=Cc3ccc(F)c(Cl)c3)CCC2=O)CC1O [Example 340, 1-[(E)-3-(3-Chloro-4-fluoro-phenyl)-acryloyl]-4-[(S)-2-hydroxy-3-((cis)-3-hydroxy-4-hydroxymethyl-4-methyl-piperidin-1-yl)-propyl]-[1,4]diazepan-5-one]
13	CC1CC(O)CN(CCCCN2CCN(C(=O)C=Cc3ccc(Cl)c(Cl)c3)CCC2=O)C1 (mixture of isomers) [Example 482, (rac,cis)-1-[(E)-3-(3,4-Dichloro-phenyl)-acryloyl]-4-[4-(3-hydroxy-5-methyl-piperidin-1-yl)-butyl]-[1,4]diazepan-5-one]
3	O=C(/C=C/c1ccc(F)c(Cl)c1)N1CCC(=O)N(C[C@@H](O)CN2CCC3(CC3)C(O)C2)CC1 (stereo partly drawn) [Example 336, 1-[(E)-3-(3-Chloro-4-fluoro-phenyl)-acryloyl]-4-[(S)-2-hydroxy-3-((−)-4-hydroxy-6-aza-spiro[2.5]oct-6-yl)-propyl]-[1,4]diazepan-5-one]
